# PubChem BioAssay (NCI)
#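 Five concentrations, 48 hours, 96-well plates. Definition used: TGI = concentration required for complete inhibition of growth.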
# Test system: SF-539 CNS
# Test: DTP human tumour cell line panel, 48 h
row,Compound,TGI [µM]
1,[N-]=[N+]=Nc1c([N+](=O)[O-])c(=O)n(-c2ccccc2)c2ccccc12,47.1

# Test system: NCI-H23 lung
# Test: DTP human tumour cell line panel, 48 h
row,Compound,TGI [µM]
1,Cc1ccc(S(=O)(=O)c2[nH]cc(/C(=C\C3CCCCC3)[N+](=O)[O-])c2C2CCCCC2)cc1,3.1
2,Nc1ccc2c(c1)C(=O)N1CCC[C@H]1C(=O)N2,> 100
3,CC1(C)C(C#N)C1C1=C(N2CCOCC2)[C@]2(C)C(OC(=O)c3ccccc3)CC[C@@H]2C1 (some centres not stated),> 100
4,COc1cccc(C2c3cc4c(cc3OC(N3CCCCC3)C2C)OCO4)c1O (configuration not stated),> 71.6
5,N#Cc1n[nH]n(-c2ccc(Br)cc2)c1=O,> 100
6,O=C1c2ccccc2C(=O)c2c(NCC(O)CO)ccc(NCC(O)CO)c21 (configuration not stated),> 100
7,COc1cccc(C(=O)Oc2ccc(OS(=O)(=O)c3ccc(C)cc3)cc2)c1C#N,> 100
8,CC1=C(C)CC2C(=O)N(c3cc(C(C)(C)C)ccc3C(C)(C)C)C(=O)C2C1 (configuration not stated),> 100
9,N=C(N)C1CN(CCc2c[nH]c3ccccc23)C(=O)NC1=O (configuration not stated),> 100
10,O=[N+]([O-])c1ccc(CN(CCCl)OCCCl)cc1,> 100
11,CC1=NN(c2nc(N)nc(/C(C#N)=C\c3ccc([N+](=O)[O-])s3)n2)C(C)(C)C1,3.32
12,O=c1[nH]cnc2c1cnn2Cc1cn(CCCCO)nn1,> 100
13,CN1CCc2c([nH]c3ccccc23)C1,> 100
14,Cn1c(=O)c2c(ncn2CCNC(CO)C(O)c2ccc([N+](=O)[O-])cc2)n(C)c1=O (configuration not stated),> 100
15,CCCNC(=O)NNC(=O)c1c[nH]c2nc(C)ccc2c1=O,> 100
16,O=C(Nc1ccccc1)c1cc(S(=O)(=O)NC2=NC(c3ccccc3)c3cc(Cl)ccc3N2)c(SSc2cc(Cl)c(C(=O)Nc3ccccc3)cc2S(=O)(=O)NC2=NC(c3ccccc3)c3cc(Cl)ccc3N2)cc1Cl (configuration not stated),> 100
17,COc1ccc(C2SC(N)=Nc3c2c(C)nn3C(=O)c2ccncc2)cc1OC (configuration not stated),> 10
18,CC1CC(OP(=O)(OCc2ccccc2)OCc2ccccc2)[C@@H](OCc2ccccc2)C(OCc2ccccc2)C1OCc1ccccc1 (some centres not stated),> 100
19,CCO/C(O)=C(/C(=N)N1CCOCC1)C(=O)Nc1ccc(F)cc1,> 100
20,C[C@H]1[C@H]2[C@H]3CC[C@@H]4[C@@]5(C)CC[C@H](O)C(C)(C)[C@@H]5CC[C@@]4(C)[C@]3(C)C[C@H](O)[C@@]2(C)C[C@H]2O[C@]21C,40.3
21,O=C(O)CCCc1nc2c(n1Cc1ccccc1)C(=O)c1ccccc1C2=O,> 100
22,CCOC(=O)NC(Nc1ccc(C)cc1)(C(F)(F)F)C(F)(F)F,> 100
23,CCOC(=O)CCC(NC(=O)Cc1ccc(Nc2nc3cc(F)c(F)cc3nc2C(=O)OCC)cc1)C(=O)OCC (configuration not stated),> 100
24,[N-]=[N+]=Nc1c([N+](=O)[O-])c(=O)n(-c2ccccc2)c2ccccc12,60.7

# Test system: MALME-3M melanoma
# Test: DTP human tumour cell line panel, 48 h
row,Compound,TGI [µM]
1,Cc1ccc(S(=O)(=O)c2[nH]cc(/C(=C\C3CCCCC3)[N+](=O)[O-])c2C2CCCCC2)cc1,1.62
2,Nc1ccc2c(c1)C(=O)N1CCC[C@H]1C(=O)N2,> 100
3,Cc1ccc2c(c1)C(=S)N1CSCC1c1nncn1-2 (configuration not stated),> 100
4,CC1(C)C(C#N)C1C1=C(N2CCOCC2)[C@]2(C)C(OC(=O)c3ccccc3)CC[C@@H]2C1 (some centres not stated),> 100
5,COc1cccc(C2c3cc4c(cc3OC(N3CCCCC3)C2C)OCO4)c1O (configuration not stated),36.1
6,N#Cc1n[nH]n(-c2ccc(Br)cc2)c1=O,> 100
7,O=C1c2ccccc2C(=O)c2c(NCC(O)CO)ccc(NCC(O)CO)c21 (configuration not stated),> 100
8,COc1cccc(C(=O)Oc2ccc(OS(=O)(=O)c3ccc(C)cc3)cc2)c1C#N,> 100
9,CC1=C(C)CC2C(=O)N(c3cc(C(C)(C)C)ccc3C(C)(C)C)C(=O)C2C1 (configuration not stated),16.4
10,N=C(N)C1CN(CCc2c[nH]c3ccccc23)C(=O)NC1=O (configuration not stated),> 100
11,O=[N+]([O-])c1ccc(CN(CCCl)OCCCl)cc1,> 100
12,CC1=NN(c2nc(N)nc(/C(C#N)=C\c3ccc([N+](=O)[O-])s3)n2)C(C)(C)C1,3.87
13,O=c1[nH]cnc2c1cnn2Cc1cn(CCCCO)nn1,> 100
14,CN1CCc2c([nH]c3ccccc23)C1,86.8
15,Cn1c(=O)c2c(ncn2CCNC(CO)C(O)c2ccc([N+](=O)[O-])cc2)n(C)c1=O (configuration not stated),> 100
16,CCCNC(=O)NNC(=O)c1c[nH]c2nc(C)ccc2c1=O,> 100
17,O=C(Nc1ccccc1)c1cc(S(=O)(=O)NC2=NC(c3ccccc3)c3cc(Cl)ccc3N2)c(SSc2cc(Cl)c(C(=O)Nc3ccccc3)cc2S(=O)(=O)NC2=NC(c3ccccc3)c3cc(Cl)ccc3N2)cc1Cl (configuration not stated),> 100
18,COc1ccc(C2SC(N)=Nc3c2c(C)nn3C(=O)c2ccncc2)cc1OC (configuration not stated),> 10
19,CC1CC(OP(=O)(OCc2ccccc2)OCc2ccccc2)[C@@H](OCc2ccccc2)C(OCc2ccccc2)C1OCc1ccccc1 (some centres not stated),> 100
20,CCO/C(O)=C(/C(=N)N1CCOCC1)C(=O)Nc1ccc(F)cc1,> 100
21,C[C@H]1[C@H]2[C@H]3CC[C@@H]4[C@@]5(C)CC[C@H](O)C(C)(C)[C@@H]5CC[C@@]4(C)[C@]3(C)C[C@H](O)[C@@]2(C)C[C@H]2O[C@]21C,39.6
22,O=C(O)CCCc1nc2c(n1Cc1ccccc1)C(=O)c1ccccc1C2=O,47
23,CCOC(=O)NC(Nc1ccc(C)cc1)(C(F)(F)F)C(F)(F)F,> 100
24,CCOC(=O)CCC(NC(=O)Cc1ccc(Nc2nc3cc(F)c(F)cc3nc2C(=O)OCC)cc1)C(=O)OCC (configuration not stated),> 100
25,[N-]=[N+]=Nc1c([N+](=O)[O-])c(=O)n(-c2ccccc2)c2ccccc12,35

# Test system: HOP-92 NSCLC
# Test: DTP human tumour cell line panel, 48 h
row,Compound,TGI [µM]
1,Cc1ccc(S(=O)(=O)c2[nH]cc(/C(=C\C3CCCCC3)[N+](=O)[O-])c2C2CCCCC2)cc1,3.99
2,Nc1ccc2c(c1)C(=O)N1CCC[C@H]1C(=O)N2,> 100
3,CC1(C)C(C#N)C1C1=C(N2CCOCC2)[C@]2(C)C(OC(=O)c3ccccc3)CC[C@@H]2C1 (some centres not stated),> 100
4,COc1cccc(C2c3cc4c(cc3OC(N3CCCCC3)C2C)OCO4)c1O (configuration not stated),46.8
5,COc1cccc(C(=O)Oc2ccc(OS(=O)(=O)c3ccc(C)cc3)cc2)c1C#N,> 100
6,CC1=C(C)CC2C(=O)N(c3cc(C(C)(C)C)ccc3C(C)(C)C)C(=O)C2C1 (configuration not stated),> 100
7,N=C(N)C1CN(CCc2c[nH]c3ccccc23)C(=O)NC1=O (configuration not stated),> 100
